How the values were obtained:
[1] = phase II clinical trial, allergic rhinitis; cited from earlier work
[2] = tested on: PGD2; conditions: dosed intranasally, phase I/II study, allergic rhinitis; cited from earlier work
[3] = biological target: recombinant human GST-SYK (Homo sapiens (Human), UniProt P43405); assay: Homogeneous Time-Resolved Fluorescence (HTRF) assay for the recombinant human Syk enzyme; format: biochemical
Description: Homogeneous Time-Resolved Fluorescence (HTRF) Assay for the Recombinant Human Syk Enzyme
A recombinant GST-hSYK fusion protein was used to measure potency of compounds to inhibit human Syk activity. […] Final volume of the reaction was 10 μL. […] To quench the reaction and detect the phosphorylated product, 2 nM of a Europium-anti-phosphotyrosine antibody (Perkin Elmer #AD0161) and 70 nM SA-APC (Perkin-Elmer #CR130-100) were added together in 15 mM Tris pH 7.5, 40 mM EDTA, 0.01% tween 20. Final volume of the quenching solution was […]. The resulting HTRF signal was measured after 30 minutes on an EnVision (Perkin-Elmer) reader using a time-resolved fluorescence protocol.

IC50 [3] [nM] | SMILES | efficacy versus placebo [1] | change in PGD2 [2] | clinical safety [2]
– | Oc1cccc(Nc2ncc(F)c(Nc3cccc(O)c3)n2)c1 [Example R112] | lack of efficacy | statistically significant decrease | safe across a range of indicators
1170 | COCc1cc(Nc2cc(C(F)(F)F)ccn2)nc(-c2cnc([C@]3(O)CC[C@@H](C(=O)OC)C(C)(C)C3)s2)c1 (single isomer, unassigned) [Example 4.8, methyl (1R,4S or 1S,4R)-4-hydroxy-4-{5-[4-(methoxymethyl)-6-{[4-(trifluoromethyl)pyridin-2-yl]amino}pyridin-2-yl]-1,3-thiazol-2-yl}-2,2-dimethylcyclohexanecarboxylate] | – | – | –

From US9598405B2, “Thiazole-substituted aminopyridines as spleen tyrosine kinase inhibitors” (Merck Sharp & Dohme Corp., priority 2012, dated 2017)
